Patent US8313779B2, “Evaluation method and screening method for substance having action of activating/suppressing innate immunity, agent and food product for activating/suppressing innate immune mechanism and method for producing the same” (Genome Pharmaceuticals Institute Co., Ltd., priority 2007, dated 2012)

Test system: isolated head muscle specimen of the silkworm larva
Test: Inhibition of induced muscular contraction in the isolated head muscle specimen of the silkworm larva (pre-injection of test substance, then inducer)
Assay type: in vivo, silkworm (Bombyx mori) larva
Procedure: The experiment using kainic acid (0.2 mM) in place of peptideglycan was carried out as a control experiment. It has been known that kainic acid is an agonist of a glutamic acid receptor and induces the muscular contraction by strongly binding to a glutamine receptor to excessively stimulate the nerve. It has been already known that the muscular contraction induced by kainic acid is inhibited by L-glutamic acid.
The experiment using kainic acid (0.2 mM) in place of BmPP was carried out as the control experiment.
As the control experiment, 0.9% NaCl in place of the rabbit antiserum against BmPP was injected.

Compound	inhibition of muscular contraction induced by BmPP (N-acetylcysteine 200 mM, 0.05 mL pre-injected, 0.4 μg/mL BmPP (FIG. 6))	inhibition of muscular contraction induced by kainic acid (N-acetylcysteine 200 mM, 0.05 mL pre-injected, 0.2 mM kainic acid (FIG. 6))	inhibition of muscular contraction induced by air (N-acetylcysteine 200 mM, 0.05 mL pre-injected, 0.05 mL of air (FIG. 6))	inhibition of muscular contraction induced by H2O2 (N-acetylcysteine 200 mM, 0.05 mL pre-injected, 125 mM H2O2 (FIG. 6))	inhibition of muscular contraction induced by peptideglycan (N-acetylcysteine 200 mM, 0.05 mL pre-injected, peptideglycan = autoclaved Staphylococcus aureus (FIG. 6))	inhibition of muscular contraction induced by BmPP (L-glutamic acid 40 mM, 0.05 mL pre-injected, then BmPP (FIG. 4))	inhibition of muscular contraction induced by kainic acid (L-glutamic acid 40 mM, 0.05 mL pre-injected, kainic acid 0.2 mM (FIG. 2))	inhibition of muscular contraction induced by peptideglycan (L-glutamic acid 40 mM, 0.05 mL pre-injected, peptideglycan 0.5 mg/mL or 5 mg/mL, 0.05 mL (FIG. 2))	inhibition of muscular contraction induced by β-glucan (L-glutamic acid pre-injected)
CC(=O)N[C@@H](CS)C(=O)O [N-acetylcysteine]	no inhibitory effect	no inhibitory effect	inhibited	inhibited	inhibited				
N[C@@H](CCC(=O)O)C(=O)O [L-glutamic acid]						not inhibited	inhibited	not inhibited	not inhibited
